Experimental findings from patent US10167279B2 (NOVARTIS AG, priority 2014, dated 2019) are described below.

One may read the IC50 as the midpoint of a concentration-inhibition curve.

One assay concerns the target C-Raf FL (Homo sapiens (Human), UniProt P04049, Y340E/Y341E). The assay is described as follows: In vitro Raf activity determination (Alpha Screen, phospho-MEK), C-Raf FL (full length, Y340E/Y341E). Conditions: ATP 1 μM; 60 min pre-incubation; 1 hour reaction; column head does not say FL or TR. The format is biochemical. The method, boiled down:
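Sf9-expressed C-Raf incubated with biotinylated kinase-dead MEK1 (K97R) in 50 mM Tris pH 7.5, 15 mM MgCl2, 0.01% BSA, 1 mM DTT with compound, 60 min at room temperature. Phospho-MEK detected by anti-p-MEK AlphaScreen luminescence; IC50 by non-linear regression.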

For another assay, the target named is b-Raf (V600E) (Homo sapiens (Human), UniProt P15056, V600E). Briefly: In vitro Raf activity determination (Alpha Screen, phospho-MEK), b-Raf (V600E). The class given is biochemical. The conditions noted are these: ATP 10 μM, 60 min pre-incubation, 3 hours reaction. The source says: The activity of a compound according to the present invention can be assessed by well-known in vitro & in vivo methods. Raf inhibition data provided herein was obtained using the following procedures.
Sf9 cells co-expressing both proteins were lysed and subjected to immobilized nickel chromatography and eluted with Imidazole. A second column (StrepII binding column) was used and eluted with desthiobiotin. Protein Tags were removed using Prescission enzyme and the protein was further purified using a flowthrough step to remove tags.
Full length MEK1 with an inactivating K97R ATP binding site mutation is utilized as a RAF substrate. The MEK1 cDNA was subcloned with an N-terminal (his)6 tag into a vector for E. Coli expression. The MEK1 substrate was purified from E. Coli lysate by nickel affinity chromatography followed by anion exchange. The final MEK1 preparation was biotinylated (Pierce EZ-Link Sulfo-NHS-LC-Biotin) and concentrated.
The plate was incubated for 60 minutes at room temperature. […] The additions were carried out under dark conditions to protect the detection beads from light. A lid was placed on top of the plate and incubated for 1 hour at room temperature, after which the luminescence was read on a PerkinElmer Envision instrument.

b-Raf (V600E), sequence (P15056 whole entry V600E): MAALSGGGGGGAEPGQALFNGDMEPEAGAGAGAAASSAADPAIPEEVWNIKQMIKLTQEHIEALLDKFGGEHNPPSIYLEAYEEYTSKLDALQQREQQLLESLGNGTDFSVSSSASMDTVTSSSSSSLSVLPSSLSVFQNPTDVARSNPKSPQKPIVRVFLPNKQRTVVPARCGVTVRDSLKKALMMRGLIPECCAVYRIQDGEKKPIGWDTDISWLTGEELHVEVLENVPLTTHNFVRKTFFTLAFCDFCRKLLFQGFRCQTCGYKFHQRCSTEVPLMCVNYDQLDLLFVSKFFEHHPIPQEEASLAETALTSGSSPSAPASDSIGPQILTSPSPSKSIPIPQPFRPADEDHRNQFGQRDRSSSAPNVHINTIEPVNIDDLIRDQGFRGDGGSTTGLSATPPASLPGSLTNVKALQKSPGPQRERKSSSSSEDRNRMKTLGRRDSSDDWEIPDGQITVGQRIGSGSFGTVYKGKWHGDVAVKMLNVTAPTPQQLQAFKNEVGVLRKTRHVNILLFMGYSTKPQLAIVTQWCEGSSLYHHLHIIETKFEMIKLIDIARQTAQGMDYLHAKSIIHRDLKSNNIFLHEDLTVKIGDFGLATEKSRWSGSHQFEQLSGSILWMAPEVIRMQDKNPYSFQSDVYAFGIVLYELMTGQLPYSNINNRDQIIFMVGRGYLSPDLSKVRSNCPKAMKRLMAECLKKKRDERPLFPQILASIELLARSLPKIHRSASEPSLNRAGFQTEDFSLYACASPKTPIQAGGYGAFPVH

Consider `COc1cc(-c2cc(NC(=O)c3cccc(C(F)(F)F)c3)cnc2C)cc(C2COC2)c1` [Example 20, N-(5-(3-methoxy-5-(oxetan-3-yl)phenyl)-6-methylpyridin-3-yl)-3-(trifluoromethyl)-benzamide], for which the figures for the IC50 against C-Raf FL and at b-Raf (V600E) were 0.628 nM and 6.88 nM, respectively. With `COc1cc(-c2cc(NC(=O)c3cccc(C(F)(F)F)c3)ccc2C)cc(C2COC2)c1` [Example 21], the values for the IC50 against C-Raf FL and against b-Raf (V600E) were 0.373 nM and 2.73 nM, respectively. In the same order, the values of `COc1cc(-c2cc(NC(=O)c3ccnc(C(C)(C)C#N)c3)ccc2C)cc(C2COC2)c1` [Example 23, 2-(2-cyanopropan-2-yl)-N-(3′-methoxy-6-methyl-5′-(oxetan-3-yl)-[1,1′-biphenyl]-3-yl)isonicotinamide] are 25000 nM and 25000 nM. For the compound `Cc1ncc(NC(=O)c2cccc(C(F)(F)F)c2)cc1-c1cccc(C2(C)COC2)c1` [Example 24], the IC50 against C-Raf FL was found to be 0.455 nM; against b-Raf (V600E), 3.52 nM. On to `Cc1ccc(NC(=O)c2cccc(C(F)(F)F)c2)cc1-c1cccc(C2(C)COC2)c1` [Example 25, N-(6-methyl-3′-(3-methyloxetan-3-yl)-[1,1′-biphenyl]-3-yl)-3-(trifluoromethyl)benz-amide], for which the IC50 against C-Raf FL is 0.154 nM; at b-Raf (V600E), 0.87 nM.

For the compound `Cc1ccc(C(=O)Nc2cccc(C(F)(F)F)c2)cc1-c1cccc(C2(C)COC2)c1` [Example 26, 6-methyl-3′-(3-methyloxetan-3-yl)-N-(3-(trifluoromethyl)phenyl)-[1,1′-biphenyl]-3-carboxamide], the IC50 on C-Raf FL was found to be 0.372 nM; against b-Raf (V600E), 2.3 nM. As for `Cc1ccc(NC(=O)c2ccnc(C(C)(C)C#N)c2)cc1-c1cccc(C2(C)COC2)c1` [Example 27, 2-(2-cyanopropan-2-yl)-N-(6-methyl-3′-(3-methyloxetan-3-yl)-[1,1′-biphenyl]-3-yl)isonicotinamide], the values for the IC50 against C-Raf FL and against b-Raf (V600E) were 263 nM and 1210 nM, respectively.

As for `Cc1ccc(NC(=O)c2ccnc(C(C)(C)C#N)c2)cc1-c1cccc(C2COC2)c1` [Example 28, 2-(2-cyanopropan-2-yl)-N-(6-methyl-3′-(oxetan-3-yl)-[1,1′-biphenyl]-3-yl)isonicotinamide], the IC50 on C-Raf FL and on b-Raf (V600E) was 25000 nM throughout. On to `Cc1ccc(NC(=O)c2ccnc(C(C)(C)C#N)c2)cc1-c1cc(C2(C)COC2)c2nccn2n1` [Example 29, 2-(2-cyanopropan-2-yl)-N-(4-methyl-3-(8-(3-methyloxetan-3-yl)imidazo[1,2-b]pyridazin-6-yl)phenyl)isonicotinamide], for which the IC50 against C-Raf FL stood at 0.637 nM; against b-Raf (V600E), 4.95 nM. `COc1ncc(-c2cc(NC(=O)c3ccnc(C(C)(C)C#N)c3)ccc2C)cc1C1(F)COC1` [Example 30, 2-(2-cyanopropan-2-yl)-N-(3-(5-(3-fluorooxetan-3-yl)-6-methoxypyridin-3-yl)-4-methylphenyl)isonicotin-amide]: the values for the half-maximal inhibitory concentration (IC50) against C-Raf FL and on b-Raf (V600E) were 0.229 nM and 1.3 nM, respectively.

In the case of `CCOc1ncc(-c2cc(NC(=O)c3ccnc(C(C)(C)C#N)c3)ccc2C)cc1C1(CF)COC1` [Example 31, 2-(2-cyanopropan-2-yl)-N-(3-(6-ethoxy-5-(3-(fluoromethyl)oxetan-3-yl)pyridin-3-yl)-4-methylphenyl)isonicotin-amide], the IC50 on C-Raf FL came out at 0.157 nM; against b-Raf (V600E) it was 0.446 nM. As for `COc1ncc(-c2cc(NC(=O)c3cc(C(C)(F)F)ccn3)ccc2C)cc1C1(F)COC1` [Example 89, 4-(1,1-difluoroethyl)-N-(3-(5-(3-fluorooxetan-3-yl)-6-methoxypyridin-3-yl)-4-methylphenyl)picolinamide], at b-Raf (V600E), the midpoint of inhibition, the IC50, lay at 1.19 nM.

`COc1ncc(-c2cc(NC(=O)c3cc(C(C)(F)F)ccn3)cnc2C)cc1C1(O)COC1` [Example 91] showed an IC50 against b-Raf (V600E) of 13 nM. In the case of `Cc1ccc(NC(=O)c2ccnc(C(F)(F)F)c2)cc1-c1cc(OCCO)nc(C2(F)CCOCC2)c1` [Example 306, N-(3-(2-(4-fluorotetrahydro-2H-pyran-4-yl)-6-(2-hydroxy-ethoxy)pyridin-4-yl)-4-methyl-phenyl)-2-(trifluoromethyl) isonicotinamide], on C-Raf FL, the IC50 turned out to be 0.83 nM. This lies in the sub-nanomolar range.

In the case of `COCCNc1nnc(-c2cc(NC(=O)c3ccnc(C(F)(F)F)c3)ccc2C)cc1C1CCOCC1` [Example 307, N-(3-(6-((2-methoxyethyl)amino)-5-(tetrahydro-2H-pyran-4-yl)pyridazin-3-yl)-4-methylphenyl)-2-(trifluoromethyl)isonicotinamide], the IC50 on C-Raf FL worked out at 0.08 nM. This IC50 lies about 10-fold lower than the previous one. With `Cc1ccc(NC(=O)c2ccnc(C(F)(F)F)c2)cc1-c1cc(C2CCOCC2)c(N(C)CCO)nn1` [Example 308], the IC50 at C-Raf FL is 0.5 nM. Turning to `Cc1ccc(NC(=O)c2ccnc(C(F)(F)F)c2)cc1-c1cc(C2CCOCC2)c(N[C@@H](C)CO)nn1` [Example 309, (S)-N-(3-(6-((1-hydroxypropan-2-yl)amino)-5-(tetrahydro-2H-pyran-4-yl)pyridazin-3-yl)-4-methylphenyl)-2-(trifluoromethyl) isonicotinamide], half-maximal inhibition against C-Raf FL (IC50) required 0.02 nM. `Cc1ccc(NC(=O)c2ccnc(C(F)(F)F)c2)cc1-c1cc(C2CCOCC2)c(N[C@H](C)CO)nn1` [Example 310, (R)-N-(3-(6-((1-hydroxypropan-2-yl)amino)-5-(tetrahydro-2H-pyran-4-yl)pyridazin-3-yl)-4-methylphenyl)-2-(trifluoromethyl) isonicotinamide]: 0.04 nM corresponded to half-maximal inhibition against C-Raf FL (IC50). Regarding `Cc1ccc(NC(=O)c2ccnc(C(F)(F)F)c2)cc1-c1cc(C2CCOCC2)c(NC[C@H](C)O)nn1` [Example 311, (S)-N-(3-(6-((2-hydroxypropyl)amino)-5-(tetrahydro-2H-pyran-4-yl)pyridazin-3-yl)-4-methylphenyl)-2-(trifluoromethyl) isonicotinamide], the midpoint of inhibition on C-Raf FL, the IC50, lay at 0.05 nM. The IC50 values of the last two compounds are within 1.5-fold of each other. Take `Cc1ccc(NC(=O)c2ccnc(C(F)(F)F)c2)cc1-c1cc(C2CCOCC2)c(NC[C@@H](C)O)nn1` [Example 312, (R)-N-(3-(6-((2-hydroxypropyl)amino)-5-(tetrahydro-2H-pyran-4-yl)pyridazin-3-yl)-4-methylphenyl)-2-(trifluoromethyl) isonicotinamide]: half-maximal inhibition at C-Raf FL (IC50) required 0.1 nM. On to `Cc1ccc(NC(=O)c2ccnc(C(F)(F)F)c2)cc1-c1cc(C2CCOCC2)c(OC2CCOCC2)nn1` [Example 313, N-(4-methyl-3-(5-tetrahydro-2H-pyran-4-yl-6-((tetrahydro-2H-pyran-4-yl)oxy)pyridazin-3-yl)phenyl)-2-(trifluoromethyl)isonicotinamide], for which the IC50 on C-Raf FL amounted to 0.07 nM. Take `CCN1CCC(Oc2nnc(-c3cc(NC(=O)c4ccnc(C(F)(F)F)c4)ccc3C)cc2C2CCOCC2)CC1` [Example 314, N-(3-(6-((1-ethylpiperidin-4-yl)oxy)-5-(tetrahydro-2H-pyran-4-yl)pyridazin-3-yl)-4-methylphenyl)-2-(trifluoromethyl) isonicotinamide]: on C-Raf FL, inhibition was half-maximal at 0.06 nM (IC50).

On to `COCCOc1nnc(-c2cc(NC(=O)c3ccnc(C(F)(F)F)c3)ccc2C)cc1C1CCOCC1` [Example 315, N-(3-(6-(2-methoxyethoxy)-5-(tetrahydro-2H-pyran-4-yl)pyridazin-3-yl)-4-methylphenyl)-2-(trifluoromethyl) isonicotinamide], for which, at C-Raf FL, the half-inhibitory concentration (IC50) is 0.1 nM.

The compound `Cc1ccc(NC(=O)c2ccnc(C(F)(F)F)c2)cc1-c1cc(C2CCOCC2)c(OC(C)C)nn1` [Example 316, N-(3-(6-isopropoxy-5-(tetrahydro-2H-pyran-4-yl)pyridazin-3-yl)-4-methylphenyl)-2-(trifluoromethyl) isonicotinamide] showed an IC50 at C-Raf FL of 0.1 nM. On to `CCOc1nnc(-c2cc(NC(=O)NCCC(C)(C)C)ccc2C)cc1C1CCOCC1` [Example 318, 1-(3,3-dimethylbutyl)-3-(3-(6-ethoxy-5-(tetrahydro-2H-pyran-4-yl)pyridazin-3-yl)-4-methylphenyl)urea], for which the IC50 against C-Raf FL turned out to be 0.1 nM. Compound `Cc1ccc(NC(=O)NCCC(C)(C)C)cc1-c1cc(OCCO)nc(C2CCOCC2)c1` [Example 319, 1-(3,3-dimethylbutyl)-3-(3-(2-(2-hydroxyethoxy)-6-(tetrahydro-2H-pyran-4-yl)pyridin-4-yl)-4-methylphenyl)urea] came in with an IC50 on C-Raf FL of 0.1 nM. Same read-out and setting: the figure for `Cc1ccc(NC(=O)C2CCNC(C(F)(F)F)C2)cc1-c1cc(C2CCOCC2)nc(N2CCC(C)(N)CC2)c1` (stereo not shown) [Example 320] is 350 nM. `Cc1ccc(NC(=O)c2ccnc(C(F)(F)F)c2)cc1-c1cc(C2CCOCC2)nc(N2CCC(C)(N)CC2)c1` [Example 321, N-(3-(2-(4-amino-4-methylpiperidin-1-yl)-6-(tetrahydro-2H-pyran-4-yl)pyridin-4-yl)-4-methylphenyl)-2-(trifluoromethyl)isonicotinamide] displayed an IC50 at C-Raf FL of 0.09 nM. For “N-(3-(2- (hydroxymethyl)-2- methyl-3-oxo-8- (tetrahydro-2H- pyran-4-yl)-3,4-dihydro- 2H- benzo[b][1,4]oxazin-6- yl)-4-methylphenyl)-5- (trifluoromethyl) pyridazine-3-carboxamide [Example 204]”, half-maximal inhibition on C-Raf FL (IC50) was put at 0.02 nM.
